Entries after “also recorded” stand apart in the source; their conditions may differ.
Assays:
[1] = test system: serum cytokines/chemokines; assay: Chronic feeding of ketone supplements: serum inflammatory profile; type: in vivo, Sprague Dawley rats; design: key to MIP-1a, change from control / IL-4, change from control / IL-1b, change from control / IL-2, change from control / IL-10, change from control / IFNy, change from control / IL-5, change from control / IL-17a, change from control / IL-18, change from control / MCP-1, change from control / IP-10, change from control / GRO/KC, change from control / VEGF, change from control / LIX, change from control / MIP-2, change from control / TNF-a, change from control / RANTES, change from control / G-CSF, change from control / GM-CSF, change from control / IL-1a, change from control / Leptin, change from control: ↑: Increased from control; ↓: Decreased from control; —: no change; T: Trend towards significance; *p < 0.05; **p < 0.01; ***p < 0.001; conditions: rat serum, 15 weeks
Description: (§1) Male Sprague Dawley rats (N=10/group) were fed ad libitum (approximate dose based on food intake recorded during study) for the study duration (15 weeks).
(§2) Measured Parameters: • Weight • Food/calorie intake • Blood glucose • Blood ketones • Triglycerides • Total Cholesterol • HDL • LDL • Safety/toxicity—serum clinical chemistry tests for kidney and liver function Inflammatory Profile: […]

[2] = test system: kidney and liver function; assay: Chronic feeding of ketone supplements: serum clinical chemistry for kidney and liver function; type: in vivo, Sprague Dawley rats; design: key: ns = no change from control; conditions: rat serum, 15 weeks, vs SD-fed control
Description: as §1, §2

[3] = Chronic feeding of ketone supplements: weight and caloric intake; type: in vivo, Sprague Dawley rats; conditions: for Approximate caloric intake compared to controls: rats, following adaptation to diet (weeks 13-15)
Description: as §1, §2

Ube3a-deficient mice [4] = assay: Novel object recognition; type: in vivo; conditions: AS mice, 24 hours following training
Protocol: (§3) Mice. Mice with the UBE3A null mutation (AS) were described previously (Jiang Y H et al., Neuron, 1998, 21(4):799-811). All experiments were performed on mice that have been backcrossed to the C57BL/6 line (Jackson Labs, Bar Harbor, Me.) for at least 5 generations. Female C57BL/6 mice containing the null mutation were bred with C57BL/6 (WT) males to produce maternally-deficient AS offspring and WT littermate controls. Audiogenic seizure experiments were performed on mice with the 129/SvEv background, with the same breeding scheme as the C57BL/6 mice. Animals were kept on a 12 hour light-dark cycle and food and water provided ad libitum. All animal testing procedures were approved by the Institutional Animal Care and Use Committee of the University of South Florida and followed the NIH guidelines for the care and use of laboratory animals.
(§4) Ketone ester administration. Control mice received standard rodent chow fed ad libitum. Mice receiving the ketone supplement were administered BD-AcAc2 with their standard rodent chow ad libitum.
Novel Object Recognition. Novel object recognition was used to evaluate recognition memory. Following habituation to an open field arena, mice were allowed to explore the arena containing two identical objects for 15 minutes. 24 hours following training, a novel object replaced one of the old objects and mice were allowed to explore for 5 minutes.

[5] = Group weights of AS mice on ketone ester diet; type: in vivo; conditions: 10% BD-AcAc2 in chow ad libitum, 8 weeks, vs AS controls
Protocol: as §3, §4
(§5) The inventors hypothesized that supplemental ketone administration would decrease seizure frequency, increase seizure threshold, and improve hippocampal-dependent cognition and motor learning deficiencies.

Ube3a-deficient mice [6] = assay: Kainic acid-induced seizures; type: in vivo; conditions: kainic acid 20 mg/kg i.p.; 10 and 45 minutes post-administration; AS treated vs AS control
Protocol: as §3, §4
Kainic acid injections. Mice were injected with 20 mg/kg of kainic acid i.p. and were monitored for seizure activity for 45 minutes and behavioral seizure score was recorded (modified Racine's scale).

[7] = Blood glucose and ketone levels in AS mice; type: in vivo; conditions: for blood ketones: AS mice on KE diet vs WT and AS controls; for blood glucose: AS mice on KE diet vs WT and AS mice on control diet
Protocol: as §4
Blood glucose and ketone levels. Blood was collected from the tip of the tail weekly using the Precision Xtra system with both glucose and ketone test strips, each requiring 0.6 μL samples.
as §5

Ube3a-deficient mice [8] = assay: Induced audiogenic seizures; type: in vivo; conditions: for latency to seize: AS treated vs AS control mice, audiogenic seizures
Protocol: as §3, §4
Induced audiogenic seizures. Seizures were induced by exposing mice to a 120-dB white noise in a sound-attenuated chamber until seizures occurred or for a maximum of 60 s. Both seizure frequency and threshold (time until seizures began) were recorded.

Ube3a-deficient mice [9] = assay: Rotarod testing; type: in vivo; conditions: AS mice, treated vs AS littermate controls
Protocol: as §3, §4
Rotarod testing. Mice were placed on a rotating rod (Rotarod, Ugo Basile, Italy) that accelerated from 4 to 40 rpm. For two consecutive days, four trials were performed per day with a 45-60 min interval between trials. The maximum duration of each trial was 5 minutes. The time that the mice fell off the rod was recorded. […]

Ube3a-deficient mice [10] = assay: Associative fear conditioning; type: in vivo; conditions: AS mice
Protocol: as §3, §4
Associative fear conditioning. Fear conditioning was used to assess hippocampal function and associative learning and memory. Training included 2 shock-tone (CS/US) pairings. Detailed methods have been previously described (Trotter, J. et al., The Journal of Neuroscience, 2013, 33(39):[…]). […]

[11] = listed as ketone ester supplement

CC(=O)CC(=O)OCCC(C)OC(=O)CC(C)=O (racemic) [HKE]
Eotaxin, change from control [1]: ↓** | Fractalkine, change from control [1]: ↑* | G-CSF, change from control [1]: ↓T | GM-CSF, change from control [1]: — | GRO/KC, change from control [1]: ↓T | IFNy, change from control [1]: ↓* | IL-1a, change from control [1]: ↓* | IL-1b, change from control [1]: ↓* | IL-2, change from control [1]: ↓T | IL-4, change from control [1]: — | IL-5, change from control [1]: ↓* | IL-6, change from control [1]: ↓* | IL-10, change from control [1]: ↓T | IL-12(p70), change from control [1]: ↓* | IL-13, change from control [1]: ↓** | IL-17a, change from control [1]: — | IL-18, change from control [1]: ↓T | IP-10, change from control [1]: ↓*** | LIX, change from control [1]: ↓* | Leptin, change from control [1]: ↓* | MCP-1, change from control [1]: ↓T | MIP-1a, change from control [1]: — | MIP-2, change from control [1]: — | RANTES, change from control [1]: ↓** | TNF-a, change from control [1]: — | VEGF, change from control [1]: — | Alanine Aminotransferase (ALT) [2]: Ns | Albumin [2]: Ns | Alkaline Phosphatase (ALP) [2]: Ns | Blood Urea Nitrogen (BUN) [2]: Ns | Calcium [2]: Ns | Chloride [2]: Ns | Cholesterol [2]: Ns | Creatinine [2]: Ns | Gamma Glutamyltransferase (GGT) [2]: Ns | Globulin [2]: Ns | Glucose [2]: Ns | Phosphorous [2]: Ns | Potassium [2]: Ns | Sodium [2]: Ns | Total Bilirubin [2]: Ns | Total Protein [2]: Ns | Approximate caloric intake compared to controls [3]: ~−7 % kcal

CC(=O)CC(=O)OCCC(C)OC(=O)CC(C)=O (racemic) [LKE]
Eotaxin, change from control [1]: ↓T | Fractalkine, change from control [1]: ↑** | G-CSF, change from control [1]: — | GM-CSF, change from control [1]: — | GRO/KC, change from control [1]: — | IFNy, change from control [1]: — | IL-1a, change from control [1]: — | IL-1b, change from control [1]: — | IL-2, change from control [1]: — | IL-4, change from control [1]: — | IL-5, change from control [1]: — | IL-6, change from control [1]: ↓T | IL-10, change from control [1]: — | IL-12(p70), change from control [1]: ↓* | IL-13, change from control [1]: ↓T | IL-17a, change from control [1]: — | IL-18, change from control [1]: — | IP-10, change from control [1]: — | LIX, change from control [1]: — | Leptin, change from control [1]: — | MCP-1, change from control [1]: — | MIP-1a, change from control [1]: ↑T | MIP-2, change from control [1]: — | RANTES, change from control [1]: — | TNF-a, change from control [1]: — | VEGF, change from control [1]: ↑* | Alanine Aminotransferase (ALT) [2]: ns | Albumin [2]: ns | Alkaline Phosphatase (ALP) [2]: ns | Blood Urea Nitrogen (BUN) [2]: ns | Calcium [2]: ns | Chloride [2]: ns | Cholesterol [2]: ns | Creatinine [2]: ns | Gamma Glutamyltransferase (GGT) [2]: ns | Globulin [2]: ns | Glucose [2]: ns | Phosphorous [2]: ns | Potassium [2]: ns | Sodium [2]: ns | Total Bilirubin [2]: ns | Total Protein [2]: ns | Approximate caloric intake compared to controls [3]: ~+10 % kcal

CC(=O)CC(=O)OCCC(C)OC(=O)CC(C)=O (stereo not drawn) [BD-AcAc2, R,S-1,3-butanediol acetoacetate diester]
novel object recognition memory (Ube3a-deficient mice [4]): enhances novel object recognition memory | body weight / weight gain [5]: normalizes body weight | body weight / weight gain [5, 11]: normalizes weight | behavioral seizure score (modified Racine's scale) (Ube3a-deficient mice [6]): significant decrease in behavioral seizure score | blood ketones ([7]; listed as KE): elevated ketones | blood ketones [7, 11]: increases blood ketone levels | blood glucose ([7]; listed as KE): decreased blood glucose | blood glucose [7, 11]: decreases blood glucose | audiogenic seizure activity (Ube3a-deficient mice [8]; AS mice after 8 weeks on the diet, listed as ketone ester): decreased; also recorded: decreases seizure activity | audiogenic seizure frequency (Ube3a-deficient mice [8]; AS treated group after 8 weeks on the diet, 120-dB white noise): 86% | latency to seize (Ube3a-deficient mice [8]): increases latency to seize | latency to seize (Ube3a-deficient mice [8]; listed as ketone ester): increased | rotarod performance (Ube3a-deficient mice [9]): increases rotarod performance | contextual fear conditioning (hippocampal-dependent learning) (Ube3a-deficient mice [10]; 24 hours after training): improves hippocampal-dependent learning | fear conditioning training phase (freezing) (Ube3a-deficient mice [10]; training phase): does not affect the fear conditioning training phase | food consumption / caloric intake ([3]; male Sprague Dawley rats, fed ad libitum 15 weeks): adjusted food consumption to regulate caloric intake to a large extent
